Experimental data: patent publication US20040097583A1, “Use of inhibitors of the sodium/hydrogen exchanger for the treatment of thrombotic and inflammatory disorders” (priority 2002, published 2004)
Values joined by “and” are separate entries in the source; they are usually repeats but may differ in a detail not shown here. Identical values can stand only once. “Also recorded” adds a separate entry of the source.

Assays:
[1] = test system: human umbilical vein endothelial cells (HUVEC); test: Measurement of the intracellular pH (pHi) during reperfusion simulation after acidosis, BCECF fluorescence; format: cell-based
Method: (§1) All the examples were carried out with human umbilical vein endothelial cells (HUVEC). These comprise primary cell cultures isolated from the umbilical vein.
(§2) For the following examples, the cells were cultivated either on gelatinized glass plates (measurement of the intracellular proton concentration) or on cell culture plates (12-well culture plates, Falcon, N.J., USA; measurement of vWF release) after the first passage.
To measure the intracellular proton concentration (pHi), the HUVECs were loaded with the pH-sensitive fluorescent dye, BCECF-AM (2′,7′-bis(carboxyethyl)-5(6)-carboxyfluorescein). A Deltascan spectrofluorometer (PTI, Hamburg) was employed for the subsequent fluorescence measurement. This measuring system consists essentially of a UV light source, a monochromator, a photon detector and the Felix and Oscar software packages (PTI, Hamburg) for controlling the system via a computer. After alternate excitation with the wavelengths 439.5 nm (pH-independent) and 490 nm (pH-sensitive), the ratio of the measured emissions of the BCECF (ratio) was reported and the pH was found after a calibration. The measuring cell is designed so that the parameters of temperature and carbon dioxide partial pressure in the system are controlled during continuous perfusion. For the reperfusion simulation, the experimental conditions were set at 37° C. and a carbon dioxide partial pressure of 5% or 10% by gassing the system and perfusate.
In the experiment, there was initially preincubation with sodium bicarbonate buffer pHex 6.4 for 60 minutes in order to simulate […] metabolic acidosis. The initiation perfusion was then changed to sodium bicarbonate buffer of pH 7.4 with 10 μM histamine as reperfusion simulation. These control experiments were compared with an experiment in which the NHE inhibitor cariporide was added in a concentration of 10 μM to the reperfusion buffer.

[2] = test system: human umbilical vein endothelial cells (HUVEC); test: Measurement of vWF release after reperfusion (ELISA of cell supernatant); format: cell-based
Method: as §1, §2
The measurements were carried out in a Heraeus Heracell incubator. This made it possible to […] the umbilical vein endothelial cells under controlled physiological conditions (temperature 37° C., relative humidity 100%, pCO2 constant at 5%), and to ensure rapid change of different cell culture media.
Said cells were initially incubated with acidotic medium (pH 6.4 composed of the ingredients: medium M199 w/Earle's & amino acids, w/L-glutamine, w/o NaHCO3, w/o Hepes+0.084 g NaHCO3/1) or pH standard medium (pH 7.4 composed of the ingredients: medium M199 w/Earle's & amino acids, w/L-glutamine, w/o NaHCO3, w/o Hepes+2.200 g NaHCO3/1), for one, three or 48 hours. Before starting the reperfusion, samples of supernatant were taken to determine the vWF concentration under acidotic conditions (vWFacidosis) and control conditions (vWFco). To simulate reperfusion, the medium was changed to one with a pH of 7.4 (ingredients: medium M199 w/Earle's & amino acids, w/L-glutamine, w/o NaHCO3, w/o Hepes+2.200 g NaHCO3/1+10 μM histamine) to which the NHE inhibitor cariporide was added in a concentration of 10 μM. Change to the same medium without corresponding addition of inhibitor served as control.
The samples taken from the supernatant were used to determine the vWF concentration. This was done by an ELISA method (enzyme-linked immuno sorbent assay) using specific antibodies. The vWF content of standard human plasma (Behring, Marburg) is calculated using an international standard (2nd International Standard 87/718, National Institute for Biological Standards and Control, London).

CC(C)c1ccc(C(=O)N=C(N)N)cc1S(C)(=O)=O [cariporide]
Rate of pH increase, Mean ± SEM ([1]; 10 μM cariporide in reperfusion buffer pH 7.4 with 10 μM histamine, after 60 minutes of acidosis (pHex 6.4), first 30 seconds after reperfusion): 0.27 ± 0.02 Δ pH / min
Rate of pH increase, individual experiments ([1]; 10 μM cariporide in reperfusion buffer pH 7.4 with 10 μM histamine, after 60 minutes of acidosis (pHex 6.4), first 30 seconds after reperfusion, listed as HOE): 0.30 Δ pH / min and 0.24 Δ pH / min (2×) and 0.23 Δ pH / min and 0.34 Δ pH / min
Reduction in the rate of increase in intracellular pH compared with the control (factor) ([1]; extracellular pH changed from 6.4 to 7.4, 10 μM cariporide): 3.6
Effect on vWF secretion of healthy, non-acidotic control cells (in words) ([2]; control cells incubated with cariporide (10 μM)): no increase or decrease in vWF secretion; also recorded: showed no effect
vWF secretion relative to control cells (vWFco = 100%), control cells incubated with cariporide (vWFco+HOE) ([2]; non-acidotic control cells, 10 μM cariporide, 10-minute reperfusion time with stimulation): 106 ± 3.0%
vWF concentration during reperfusion of preacidotic cells in the presence of cariporide (vWFHOE), relative to control (vWFco = 100%) ([2]; preacidotic cells (pH 6.4), 10 μM cariporide, 10-minute reperfusion time with stimulation, without cariporide 193 ± 8.0%): 139 ± 16%
Reduction of the increased vWF secretion during reperfusion ([2]; preacidotic cells, 10 μM cariporide): ~60%
